Measurements from patent publication US20240139188A1, “Arylamide Compounds For Treatment And Prevention Of Fungal Infections” (priority 2022, published 2024).
≈ marks a conversion by molar mass, not a printed value.

Test system: Cryptococcus neoformans
Assay: In vitro susceptibility (MIC), macrobroth dilution
Type: cell-based
Settings: Cryptococcus neoformans, C. neoformans CN9759, drug alone

With `N=C(N)NCCCCC(=O)Nc1cc(C(F)(F)F)cc(NC(=O)c2cc(C(=O)Nc3cc(C(F)(F)F)cc(NC(=O)CCCCNC(=N)N)c3OC3CCNC3)ncn2)c1OC1CCNC1` (centres unmarked) [BRI, brilacidin] the MIC50 (lowest concentration causing 50% decrease in growth vs untreated control, read-out: MIC50) was 1 µg/mL (≈ 1.07 µM) and the MIC (lowest concentration without growth, read-out: MIC100) was 8 µg/mL (≈ 8.54 µM).
